In US20250319115A1, “Compositions and Methods for Modulating Cytokines” (Flagship Pioneering Innovations VII, LLC, priority 2022, published 2025):

Legend:
IL-15 signaling pathway = assay: HEK-Blue IL-15 SEAP reporter assay; assay type: cell-based
Method: (§1) The effects of putative inhibitors on pro-inflammatory cytokine pathways are assessed using HEK-Blue cells engineered for the detection of bioactive cytokines via activation of JAK/STAT pathways and subsequent expression of the SEAP reporter gene. Cells are treated with their relevant cytokines+/−peptides or control antibodies, and 20 hours after treatment activation of the relevant cytokine receptor is determined via SEAP expression through mixing cell supernatants with a Quanti-Blue colorimetric reagent and measuring optical density at 600 nm.
(§2) Reporter lines HEK-Blue TL-4/TL-15/IFN-alpha were cultured in DMEM with GlutaMAX and 10% HI FBS (Gibco). […] After 24 hours, cells were treated with 10 μL of their relevant cytokines (StemCell Technologies) at the previously determined EC75 for activation (1.164 ng/mL for HEK-Blue IL-4, 2.26 ng/mL for HEK-Blue IL-15, and 0.456 ng/mL for HEK-Blue IFN-alpha), with or without 10 μL of peptides (5 uM final concentration) or control antibodies (1 ug/well). […]
(§3) 20-22 hours after treatment, 20 μL of the cell supernatants were collected and transferred to 96-well white flat opaque-bottom plates (Costar) and each sample was mixed with 180 μL of Quanti-Blue reagent. […] Assay plates were then removed from the incubator and the optical density of each well was measured at 600 nm on a GloMax plate reader. […]

IL-4 signaling pathway = assay: HEK-Blue IL-4 SEAP reporter assay; assay type: cell-based
Method: as §1
Reporter lines HEK-Blue TL-4/TL-15/IFN-alpha were cultured in DMEM with GlutaMAX and 10% HI FBS (Gibco). Cells were seeded into black 96-well optical clear flat-bottomed PhenoPlates at densities of 25000 cells/well and 100 uL/well and allowed to rest overnight in a 37 C incubator with 5% CO2. After 24 hours, cells were treated with 10 μL of their relevant cytokines (StemCell Technologies) at the previously determined EC75 for activation (1.164 ng/mL for HEK-Blue IL-4, 2.26 ng/mL for HEK-Blue IL-15, and 0.456 ng/mL for HEK-Blue IFN-alpha), with or without 10 μL of peptides (5 uM final concentration) or control antibodies (1 ug/well). Cells were kept overnight in a 37 C incubator with 5% C02.
20-22 hours after treatment, 20 μL of the cell supernatants were collected and transferred to 96-well white flat opaque-bottom plates (Costar) and each sample was mixed with 180 μL of Quanti-Blue reagent. Colorimetric reactions were allowed to develop in a 37 C incubator with 5% C02 for a certain duration of time (3 hours for HEK-Blue IL-4, 2 hours for HEK-Blue IL-15, and 1 hour for IFN-alpha). Assay plates were then removed from the incubator and the optical density of each well was measured at 600 nm on a GloMax plate reader. Relative activation of the cytokine signaling pathway in question was determined by ratioing the optical density of each sample to the average optical density for the cytokine-only treated cells from the same plate.

[1] = tested on: Peripheral Blood Mononuclear Cells (PBMCs); assay: single cell RNA-seq of PBMCs treated with target protein; assay type: cell-based, human; conditions: 10 μM, 24 hours, vs scrambled protein control
Method: (§4) To determine the effect of the Target Protein on TLR activity, the Target Protein, irrelevant proteins, and controls were applied+/−established TLR agonists to a commercial reporter cell line which monitors the two main signal transduction pathways that respond to TLR activation. To determine which primary, human, immune cells are most responsive to the Target Proteins, the Target Proteins were applied to Peripheral Blood Mononuclear Cells (PBMCs) and then 24 hours later the PBMCs were subjected to single cell RNA-seq.
scRNA-seq: From example: Shifts in cell populations after treatment with Target Proteins are assessed by single cell RNA-seq (scRNA-seq). Target proteins (e.g., listed in Table 1) are synthesized through Fluorenylmethyloxycarbonyl (Fmoc) protection group chemistry using Solid Phase Peptide Synthesis (SPPS). […]
Post sequencing, reads are aligned to the human reference genome (GENCODE34/GRCH38). Reads are demultiplexed using DNA-barcoded antibodies and run through quality control (g. doublets are removed, singlet cells are selected with less than 15% mitochondria contamination at RNA levels and reads contain higher than 500 genes). […]
scRNA-seq: From example: Shifts in cell populations after treatment with Target Proteins are assessed by single cell RNA-seq (scRNA-seq). […]

[2] = tested on: Interferon Regulatory Factor (IRF) pathway; assay: Dual Reporter Assay: NF-kB-SEAP and IRF-Lucia luciferase reporter monocyte (THP1) cells +/- TLR agonists; assay type: cell-based, human
Method: as §4
Dual Reporter Assay: NF-kB-SEAP and IRF-Lucia luciferase reporter monocyte (THP1) cells (InvivoGen) are cultured in RPMI 1640 media supplemented with HEPES buffer (10 mM), sodium pyruvate (1 mM), glucose (4.5 g/L), fetal bovine serum (10%), penicillin (100 U/mL), streptomycin ([…]), and 2-mercaptoethanol (0.05 mM). THP1 cells are treated with 100 ng/mL LPS (Sigma-Aldrich) for 24 hrs, the target protein (final conc. 10 μM), or left untreated.
After treatment, THP1 cells are cultured for 24 hrs and then assayed for reporter activity. Both reporter proteins are measurable in the cell culture supernatant when using QUANTI-Blue (InvivoGen), a SEAP detection reagent, and QUANTI-Luc (InvivoGen), a luciferase detection reagent. QUANTI-Blue is a colorimetric enzyme assay developed to determine any alkaline phosphatase activity in a biological sample, such as cell culture supernatant. QUANTI-Luc is a lyophilized assay reagent containing all the components required to quantitatively measure the activity of Lucia Luciferase other coelenterazine-utilizing luciferases. Increased reporter activity after treatment with target protein is observed in cells where the target protein is immune stimulating. Additionally, decreased reporter activity after treatment with the target protein is observed in cells where the target protein is immune dampening.
as §4, with “proteins” for “proteins,”

[3] = tested on: IFN-alpha signaling pathway; assay: HEK-Blue IFN-alpha SEAP reporter assay; assay type: cell-based
Method: as §1, §2, §3

[4] = peptide 5 uM, cytokine at EC75, SEAP OD 600 nm
[5] = THP-1 dual reporter cells, protein 10 μM vs scramble protein, 24 hours

SEQ ID NO: 1238_L8V: novel peptide capable of inhibiting pro-inflammatory cytokine pathways (LVVRWAVVVFRSSTAALPRAAEAARRSEKWPKTSALGRRS; listed as Homo sapiens)
Relative activity (compared to cytokine only controls), Cytokine IL-15 (IL-15 signaling pathway; [4]): −70% | inhibitor of the IL-4 signaling pathway (grade in words) (IL-4 signaling pathway; FIG. 9): strong

SEQ ID NO: 6516: novel, secreted peptide that inhibits the innate immune response caused by toll-like receptor agonists (MAAPSNKTELAWSPRLAA; listed as Homo sapiens)
effect on T-cells, B-cells, and NK-cells (up/downregulated genes, scRNA-seq) [1]: relatively small effects | effect on active monocytes and dendritic cells (up/downregulated genes, scRNA-seq) [1]: strongly affected | relative IRF activity (reporter gene expression) ([2]; THP-1 dual reporter cells, peptide 0, 2.5, 5, 7.5, and 10 μM in the presence of LPS, 24 hours): inhibition | IRF response, co-treated with TLR1/2 agonist [2, 5]: inhibited | IRF response, co-treated with TLR2 agonist [2, 5]: no significant effect | IRF response, co-treated with TLR3 agonist [2, 5]: no significant effect | IRF response, co-treated with TLR4 agonist [2, 5]: inhibited | IRF response, co-treated with TLR5 agonist [2, 5]: no significant effect | IRF response, co-treated with TLR6/2 agonist [2, 5]: inhibited | IRF response, co-treated with TLR7 agonist [2, 5]: no significant effect | IRF response, co-treated with TLR8 agonist [2, 5]: no significant effect | IRF response, co-treated with TLR9 agonist [2, 5]: no significant effect | IRF signal transduction pathway response from several TLRs ([2]; reporter cell line +/- TLR agonists): significantly blocks

SEQ ID NO: 3915: novel peptide capable of activating the signaling pathway for IFN-alpha (LRRAIWGLLCLMVAEENQEASLRKLAVRRKFWRLGRATQRYSVAW; listed as Homo sapiens)
activator of the IFN-alpha signaling pathway (grade in words) ([3]; FIG. 11): moderate activator | Relative activity (compared to cytokine only controls), Cytokine IFN-a [3, 4]: +40%

SEQ ID NO: 6091: novel peptide capable of inhibiting pro-inflammatory cytokine pathways (IFLFLPIFSFPQIFLLLFYHLE; listed as Homo sapiens)
inhibitor of the IL-15 signaling pathway (grade in words) (IL-15 signaling pathway; FIG. 10): strong inhibitor | Relative activity (compared to cytokine only controls), Cytokine IL-4 (IL-4 signaling pathway; [4]): −40%
